In patent publication US9586959B2, “Substituted tricyclic heterocycles as histamine 4 receptor inhibitors” (C&C RESEARCH LABORATORIES, priority 2011, dated 2017):
In brackets after ≈: the same amount, converted by molar mass.

Legend:
[1] = target: human histamine 4 receptor (hH4R) (Homo sapiens (Human), UniProt Q9H3N8); test: Binding affinity of human histamine 4 receptor (hH4R), [3H] labeled histamine displacement; conditions: hH4R-overexpressed cell membrane, [3H] histamine
Method: 20 μL of the prepared compound solution was transferred to each well of a 96-well plate, and then 20 μL of 100 μM histamine diluted with analysis buffer solution and 1% DMSO were transferred to each well to calculate non-specific binding and total binding degree. 25 μg of human histamine 4 receptor-overexpressed cell membrane (PerkinElmer) was diluted into 160 μL of analysis buffer solution and that was transferred to each well. [^3H] labeled histamine (PerkinElmer) was diluted into 1 μM concentration, 20 μL was allocated in each well, and then it was kept in a 27° C. incubator for 30 minutes. After the reaction, 200 μL of the mixture was transferred to a glass fiber plate in which 0.5% polyethylene amine was presoaked, and then non-binding [^3H] labeled histamine was removed in vacuum. After 4 times washing with 200 μL of washing buffer solution (50 mM tris-HCl, pH 7.4), the plate was dried in a 37° C. oven for 18 hours. 100 μL of betascint cocktail solution was added to each well, and after 1 hour CPM (count per minute) value of [^3H] labeled histamine was measured by using Wallac beta-counter TriLux.

[2] = target: human histamine 3 receptor (hH3R) (Homo sapiens (Human), UniProt Q9Y5N1); test: Binding affinity of human histamine 3 receptor (hH3R), [3H] labeled N-α-methylhistamine displacement; conditions: hH3R-overexpressed cell membrane, [3H] N-α-methylhistamine
Sequence of human histamine 3 receptor (hH3R) (Q9Y5N1 whole entry): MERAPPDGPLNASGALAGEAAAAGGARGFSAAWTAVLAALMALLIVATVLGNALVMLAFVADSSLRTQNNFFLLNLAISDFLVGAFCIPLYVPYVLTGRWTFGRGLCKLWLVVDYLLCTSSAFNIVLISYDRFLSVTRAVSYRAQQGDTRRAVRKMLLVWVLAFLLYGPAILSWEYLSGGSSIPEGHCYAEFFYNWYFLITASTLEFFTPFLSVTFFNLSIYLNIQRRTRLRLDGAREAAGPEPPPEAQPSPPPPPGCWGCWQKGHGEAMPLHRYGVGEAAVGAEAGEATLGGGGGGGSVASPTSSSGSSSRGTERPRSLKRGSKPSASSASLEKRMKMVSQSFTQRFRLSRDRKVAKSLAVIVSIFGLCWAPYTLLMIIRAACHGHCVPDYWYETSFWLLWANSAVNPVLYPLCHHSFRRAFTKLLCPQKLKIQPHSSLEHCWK
Procedure, shortened: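 Membranes from cells overexpressing hH3R (15 μg) were incubated with compound and [3H]N-α-methylhistamine (20 μM stock) in 50 mM Tris-HCl pH 7.4, 5 mM MgCl2 for 30 min at 27 °C. Bound radioligand was counted by scintillation after filtration; 200 μM (R)(−)-α-methylhistamine stock defined non-specific binding; IC50 derived.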

[3] = Solubility in artificial gastrointestinal tract solution; type: physicochemical; conditions: thermodynamic from solid; for solubility at 1 h: fassgf or other biorelevant, first solution pH 1.2, 2 mg/mL sample, 37° C. 1 hour; for solubility at 2 h: fassif, second solution pH 6.5, 2 mg/mL sample, 37° C. 2 hours
Method: 2.0 g of sodium chloride was added in 7.0 mL of 37% of hydrochloric acid and water to make the total volume of 1 L. The pH was adjusted to exactly 1.2 with 1N sodium hydroxide or 1N hydrochloric acid. A small amount (20 mL) of this solution was taken and added in 25 μL of triton X-100 to make the total volume of 25 mL.
0.348 g sodium hydroxide, 3.438 g NaH2PO4, 6.186 g sodium chloride and water were added to make the total volume of 1 L. The pH was adjusted to exactly 6.5 with 1N sodium hydroxide or 1N hydrochloric acid. A small amount (20 mL) of this solution was taken and 41.25 mg of sodium taurocholate hydrate and 25 μL of 750 mM lecithin dissolved in ethanol was added to make the total volume of 25 mL.
The heated test sample solutions were filtered to remove undissolved compounds therein. Finally, 100 μL of the completely compound-dissolved solution was sampled and 100 μL of CH3CN was added thereto to make the test sample solution. For each analysis of the test sample solution, the solubility was measured by using liquid chromatography.

[4] = Metabolic stability in mouse microsome; conditions: mouse microsome 1 mg/mL, 5 μM compound, 1 mM NADPH
[5] = Metabolic stability in human microsome; conditions: human microsome 1 mg/mL, 5 μM compound, 1 mM NADPH
[6] = Mouse pharmacokinetics (oral); type: in vivo; conditions: plasma, 50 mg/kg, ICR mouse, 5 mg/mL solution at 10 mL/kg; for AUC(0-inf): read-out: Mouse pharmacokinetics AUCinf; for half-life: read-out: Mouse pharmacokinetics t1/2 (converted)
Method: The weight of each ICR mouse and SD rat was properly 20˜30 g and 200˜300 g, and dosage of the compound of the present invention was 10 mL/kg for mice and 5 mL/kg for rats, and administered orally using Zonde. Blood collection was performed at 0.25, 0.5, 1, 2, 4, 6, 8 and 24 hours by orbital venous blood collection using a capillary tube coated with an anticoagulant, and then plasma was isolated using a centrifuge and kept in a freezer.
Plasma collected from animals and standard concentration material were pretreated using solid-phase extraction, and concentration of the compound of the invention was determined using a liquid chromatography mass spectrometer (Agilent HPLC, API-3000).
According to the resulting concentration value, the pharmacokinetics parameter was found using WinNonlin (Version 6.2) and half-life (t1/2), maximum blood concentration (Cmax) and infinite area under the curve (AUCinf) are shown in Tables 6 and 7 below.

[7] = target: human serotonin 3 receptor (human 5-HT3 receptor) (Homo sapiens (Human), UniProt P46098); test: Binding affinity of human serotonin 3 receptor (performed at Cerep)
Sequence of human serotonin 3 receptor (human 5-HT3 receptor) (P46098 24-478): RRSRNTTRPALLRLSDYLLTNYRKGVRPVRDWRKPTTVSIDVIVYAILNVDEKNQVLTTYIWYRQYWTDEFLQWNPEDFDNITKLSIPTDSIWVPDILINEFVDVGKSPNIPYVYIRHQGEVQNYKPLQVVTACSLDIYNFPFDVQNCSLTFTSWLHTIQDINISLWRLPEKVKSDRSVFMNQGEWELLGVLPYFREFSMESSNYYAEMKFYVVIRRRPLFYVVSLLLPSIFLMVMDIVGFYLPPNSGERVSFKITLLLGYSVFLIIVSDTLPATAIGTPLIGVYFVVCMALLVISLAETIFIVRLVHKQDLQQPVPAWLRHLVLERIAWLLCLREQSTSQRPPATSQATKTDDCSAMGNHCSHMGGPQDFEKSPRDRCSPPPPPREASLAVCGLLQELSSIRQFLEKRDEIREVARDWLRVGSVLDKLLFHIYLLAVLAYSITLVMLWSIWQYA
Method: The binding assays of the human serotonin 3 receptor for present invention were performed at Cerep (Poitiers, France), and the results of analysis are shown in Table 3.

[8] = artificial gastrointestinal tract solution

IC50 [1]	IC50 [2]	solubility at 1 h [3, 8]	solubility at 2 h [3, 8]	Metabolic stability (CLh. int), Mouse [4]	Metabolic stability (CLh. int), Human [5]	Cmax [6]	AUC(0-inf) [6]	half-life [6]	solubility at 1 h [3]	solubility at 2 h [3]	inhibition at 10 µM ([7]; read-out: % inhibition degree at 10 μM, human serotonin 3 receptor (h5-HT3R))	IC50 ([7]; read-out: Binding affinity (IC50) of human serotonin 3 receptor (h5-HT3R))	Structure (SMILES)	IC50 ([1]; hydrochloride)
240 nM	> 100000 nM	1900 µg/mL (≈ 6.33 mM)	1070 µg/mL (≈ 3.55 mM)	5230 µL/min/mg	4200 µL/min/mg	–	–	–	–	–	–	–	CNC1CN(c2nc3ncc([N+](=O)[O-])cc3n3cnnc23)C1 [Compound 111, N-methyl-1-(8-nitropyrido[2,3-e][1,2,4]triazolo[4,3-a]pyrazin-4-yl)azetidin-3-amine]	–
260 nM	> 100000 nM	1820 µg/mL (≈ 6.31 mM)	1580 µg/mL (≈ 5.46 mM)	11770 µL/min/mg	2870 µL/min/mg	–	–	–	–	–	–	–	CNC1CN(c2nc3ncc(Cl)cc3n3ccnc23)C1 [Compound 88, 1-(8-Chloroimidazo[1,2-a]pyrido[2,3-e]pyrazin-4-yl)-N-methylazetidin-3-amine]	–
760 nM	> 100000 nM	1980 µg/mL (≈ 6.5 mM)	1700 µg/mL (≈ 5.58 mM)	26160 µL/min/mg	960 µL/min/mg	–	–	–	–	–	–	–	C[C@H]1CN(c2nc3ncc(Cl)cc3n3cnnc23)CCN1 [Compound 19, (S)-8-chloro-4-(3-methylpiperazin-1-yl)pyrido[2,3-e][1,2,4]triazolo[4,3-a]pyrazine]	–
160 nM	> 100000 nM	1870 µg/mL (≈ 5.62 mM)	708 µg/mL (≈ 2.13 mM)	1780 µL/min/mg	3880 µL/min/mg	–	–	–	–	–	–	–	CNC1CN(c2nc3ncc(Br)cc3c3ccnn23)C1 [Compound 110, 1-(9-bromopyrazolo[1,5-c]pyrido[3,2-e]pyrimidin-5-yl)-N-methylazetidin-3-amine]	–
620 nM	> 100000 nM	1420 µg/mL (≈ 4.22 mM)	1570 µg/mL (≈ 4.68 mM)	8150 µL/min/mg	5160 µL/min/mg	–	–	–	–	–	–	–	CNC1CN(C2=Nc3ncc(Br)cc3N3CCN=C23)C1 [Compound 107, 1-(8-bromo-1,2-dihydroimidazo[1,2-a]pyrido[2,3-e]pyrazin-4-yl)-N-methylazetidin-3-amine]	–
190 nM	> 100000 nM	1990 µg/mL (≈ 7.38 mM)	1870 µg/mL (≈ 6.95 mM)	9080 µL/min/mg	1900 µL/min/mg	–	–	–	–	–	–	–	CNC1CN(c2nc3ncc(C)cc3n3cnnc23)C1 [Compound 50, N-Methyl-1-(8-methylpyrido[2,3-e][1,2,4]triazolo[4,3-a]pyrazin-4-yl)azetidin-3-amine]	–
65 nM	> 100000 nM	1930 µg/mL (≈ 5.78 mM)	758 µg/mL (≈ 2.27 mM)	10420 µL/min/mg	4080 µL/min/mg	8270 ng/mL	15900 ng·h/mL	1.18 h	–	–	–	–	Brc1cnc2nc(N3CCNCC3)c3nncn3c2c1 [Compound 16, 8-Bromo-4-(piperazin-1-yl)pyrido[2,3-e][1,2,4]triazolo[4,3-a]pyrazine]	–
220 nM	> 100000 nM	–	–	2050 µL/min/mg	1320 µL/min/mg	–	–	–	1670 µg/mL (≈ 5.18 mM)	1460 µg/mL (≈ 4.53 mM)	–	–	CNC1CN(c2nc3ncc(C(F)(F)F)cc3n3cnnc23)C1 [Compound 52, N-Methyl-1-(8-(trifluoromethyl)pyrido[2,3-e][1,2,4]triazolo[4,3-a]pyrazin-4-yl)azetidin-3-amine]	–
380 nM	> 100000 nM	2070 µg/mL (≈ 6.51 mM)	1640 µg/mL (≈ 5.18 mM)	7570 µL/min/mg	1620 µL/min/mg	–	–	–	–	–	–	–	C[C@H]1CN(c2nc3ncc(Cl)cc3n3cnnc23)CCN1C [Compound 20, (S)-8-chloro-4-(3,4-dimethylpiperazin-1-yl)pyrido[2,3-e][1,2,4]triazolo[4,3-a]pyrazine]	–
73 nM	> 100000 nM	1350 µg/mL (≈ 4.43 mM)	1150 µg/mL (≈ 3.79 mM)	8390 µL/min/mg	1030 µL/min/mg	10100 ng/mL	74900 ng·h/mL	5.39 h	–	–	–	–	Cc1nc2c3cc(Cl)cnc3nc(N3CCNCC3)n2n1 [Compound 32, 9-Chloro-2-methyl-5-(piperazin-1-yl)pyrido[3,2-e][1,2,4]triazolo[1,5-c]pyrimidine]	–
65 nM	> 100000 nM	1970 µg/mL (≈ 6.78 mM)	1310 µg/mL (≈ 4.49 mM)	9470 µL/min/mg	4480 µL/min/mg	10800 ng/mL	121000 ng·h/mL	15.6 h	–	–	18%	> 10000 nM	CNC1CN(c2nc3ncc(Cl)cc3n3nnnc23)C1 [Compound 93, 1-(8-Chloropyrido[2,3-e]tetrazolo[1,5-a]pyrazin-4-yl)-N-methylazetidin-3-amine]	–

Structure (SMILES)	IC50 [1]	IC50 [2]	solubility at 1 h [3, 8]	solubility at 2 h [3, 8]	Metabolic stability (CLh. int), Mouse [4]	Metabolic stability (CLh. int), Human [5]	Cmax [6]	AUC(0-inf) [6]	half-life [6]	solubility at 1 h [3]	solubility at 2 h [3]	inhibition at 10 µM ([7]; read-out: % inhibition degree at 10 μM, human serotonin 3 receptor (h5-HT3R))	IC50 ([7]; read-out: Binding affinity (IC50) of human serotonin 3 receptor (h5-HT3R))	IC50 ([1]; hydrochloride)
CNC1CN(c2nc3ncc(Br)cc3n3nnnc23)C1.Cl [Compound 69, 1-(8-Bromopyrido[2,3-e]tetrazolo[1,5-a]pyrazin-4-yl)-N-methylazetidin-3-amine hydrochloride]	35 nM	> 100000 nM	1810 µg/mL	1920 µg/mL	14040 µL/min/mg	5690 µL/min/mg	–	–	–	–	–	–	–	–
CNC1CN(c2nc3ncc(Br)cc3n3cnnc23)C1.Cl [Compound 68, 1-(8-Bromopyrido[2,3-e][1,2,4]triazolo[4,3-a]pyrazin-4-yl)-N-methylazetidin-3-amine hydrochloride]	–	> 100000 nM	1820 µg/mL	1760 µg/mL	3930 µL/min/mg	300 µL/min/mg	–	–	–	–	–	–	–	130 nM
